Patent publication US4499091A, “1-Amino (or substituted amino)-1,4-dihydro-4-oxo-6-fluoro-7-heterylquinoline-3-carboxylic acids and their use as antibacterial agents” (Sterling Drug Inc., priority 1983, dated 1985)
Converted amounts (≈) assume the structure as drawn. Like-named read-outs stand apart in the source and are kept apart here.

What was measured:
[1] = test system: Klebsiella pneumoniae 39645; experiment: in vivo antibacterial activity in mice infected with K. pneumoniae (PD50); parameters: species or system mouse (female) infected with Klebsiella pneumoniae
Procedure: (§1) The in vivo antibacterial activity of the compounds of the invention was determined in female mice, 18-20 grams each, by the following procedure:
(§2) Aqueous solutions of the compounds to be tested were prepared by dissolving the free acid form in dilute sodium hydroxide and diluting the solution with distilled water to be desired volume.
(§3) Cultures of Escherichia coli Vogel prepared in brain heart infusion broth, cultures of Klebsiella pneumoniae 39645 grown in tryptose phosphate broth with 5% rabbit serum diluted in the same broth and cultures of Pseudomonas aeruginosa MGH-2 grown on brain heart infusion agar and suspended in physiological saline, were used to infect the mice as follows:
K. pneumoniae: mice were inoculated intramuscularly in the right hind leg with 0.2 ml of the bacterial test inoculum (2.05×10^4 cells/ml).
Mice infected with K. pneumoniae were medicated at the following times: seventeen hours and one hour preinfection, six hours postinfection and twice a day for the next three days. The test compound was administered by both subcutaneous (0.2 ml) and oral (0.5 ml) routes. Deaths were recorded daily for fourteen days.
(§4) Groups of ten animals each for four or five dose levels were thus treated and the number of survivors in each group recorded. The fifty percent protective dose values (PD50) were then calculated.

Proteus mirabilis MGH-1 = experiment: in vitro antibacterial activity, serial dilution (MIC); assay type: cell-based; settings: MGH1, 18-20 hours static incubation, read-out: Minimal Inhibitory Concentration (MIC)
Procedure: (§5) The in vitro antibacterial activity of the compounds of the invention was determined by conventional serial dilution procedures. Bacterial cultures were grown in tryptose phosphate broth or brain heart infusion broth (containing heat-inactivated normal horse serum for tests with S. pyogenes) overnight at 37° C. and subsequently diluted in double strength broth to provide bacterial inocula of about 2×10^5 cells/ml. Aqueous solutions of the compounds of the invention were prepared by dissolving the free acid form in 0.5N sodium hydroxide. The solutions were diluted with sterile distilled water to 1000 mcg/ml of compound in terms of the free acid. Serial two-fold dilutions of the compound stock solutions were prepared in water and 0.5 ml of each dilution was transferred to sets of tubes, one set for each bacterial inoculum.

Escherichia coli Vogel [2] = experiment: as above; assay type: cell-based; settings: 18-20 hours static incubation, read-out: Minimal Inhibitory Concentration (MIC)
Procedure: as §5

Proteus vulgaris 9920 = experiment: as above; assay type: cell-based; settings: 18-20 hours static incubation, read-out: Minimal Inhibitory Concentration (MIC)
Procedure: as §5

[3] = test system: Klebsiella pneumoniae 39645; experiment: as above; assay type: cell-based; settings: 18-20 hours static incubation, read-out: Minimal Inhibitory Concentration (MIC)
Procedure: as §5

[4] = test system: Pseudomonas aeruginosa MGH-2; experiment: as above; assay type: cell-based; settings: MGH2, 18-20 hours static incubation, read-out: Minimal Inhibitory Concentration (MIC)
Procedure: as §5

[5] = test system: Staphylococcus aureus Smith; experiment: as above; assay type: cell-based; settings: 18-20 hours static incubation, read-out: Minimal Inhibitory Concentration (MIC)
Procedure: as §5

Escherichia coli Vogel [6] = experiment: in vivo antibacterial activity in mice infected with E. coli (PD50); parameters: species or system mouse (female) infected with Escherichia coli; settings: 168 h
Procedure: as §1, §2, §3
Mice infected with E. coli were medicated once (0.5 ml) one-half hour post infection, the test compound being administered by either the subcutaneous (s.c.) or oral (p.o.) route. Deaths were recorded daily for seven days.
as §4

[7] = test system: Streptococcus pyogenes C203; experiment: in vitro antibacterial activity, serial dilution (MIC); assay type: cell-based; settings: 18-20 hours static incubation, read-out: Minimal Inhibitory Concentration (MIC)
Procedure: as §5

[8] = Klebsiella pneumoniae, 39645, sc, 336 h, mouse, K. pneumoniae, s.c., pre- and postinfection, 14 days, read-out: Protective Dose (PD50)
[9] = sc, mouse, E. coli, s.c., once one-half hour post infection, 7 days, read-out: Protective Dose (PD50)

Compound: CNn1cc(C(=O)O)c(=O)c2cc(F)c(N3CCN(C)CC3)cc21 [Example 1, 6-Fluoro-1,4-dihydro-1-methylamino-7-(4-methyl-1-piperazinyl)-4-oxo-3-quinolinecarboxylic acid]
- ED50 ([1]; Klebsiella pneumoniae, 39645, po, 336 h, mouse, K. pneumoniae, p.o., pre- and postinfection, 14 days, read-out: Protective Dose (PD50)): 10.6 mg/kg
- ED50 [1, 8]: 8.8 mg/kg
- MIC (Proteus mirabilis MGH-1): 0.5 µg/mL (≈ 1.5 µM)
- MIC (Escherichia coli Vogel [2]): 0.25 µg/mL (≈ 0.748 µM)
- MIC (Proteus vulgaris 9920): 0.125 µg/mL (≈ 0.374 µM)
- MIC [3]: 0.25 µg/mL (≈ 0.748 µM)
- MIC [4]: 1 µg/mL (≈ 2.99 µM)

Compound: CCCN1CCN(c2cc3c(cc2F)c(=O)c(C(=O)O)cn3NC)CC1 [Example 11, 6-Fluoro-1,4-dihydro-1-methylamino-4-oxo-7-(4-propyl-1-piperazinyl)-3-quinolinecarboxylic acid]
- ED50 [1, 8]: 81.5 mg/kg
- MIC [5]: 1.95 µg/mL (≈ 5.38 µM)
- MIC (Proteus mirabilis MGH-1): 1 µg/mL (≈ 2.76 µM)
- MIC (Escherichia coli Vogel [2]): 0.25 µg/mL (≈ 0.69 µM)
- MIC (Proteus vulgaris 9920): 0.25 µg/mL (≈ 0.69 µM)
- MIC [3]: 0.5 µg/mL (≈ 1.38 µM)
- ED50 (Escherichia coli Vogel [6]; [9]): 14.8 mg/kg

Compound: CNn1cc(C(=O)O)c(=O)c2cc(F)c(N3CCCCC3)cc21 [Example 15, 6-Fluoro-1,4-dihydro-1-methylamino-4-oxo-7-(1-piperidinyl)-3-quinolinecarboxylic acid]
- ED50 [1, 8]: > 200 mg/kg
- MIC [5]: 1.95 µg/mL (≈ 6.11 µM)
- MIC (Proteus vulgaris 9920): 0.5 µg/mL (≈ 1.57 µM)
- ED50 (Escherichia coli Vogel [6]; [9]): > 200 mg/kg

Compound: CNn1cc(C(=O)O)c(=O)c2cc(F)c(Cl)cc21 [7-Chloro-6-fluoro-1,4-dihydro-1-methylamino-4-oxo-3-quinolinecarboxylic acid]
- ED50 ([1]; Klebsiella pneumoniae, 39645, 336 h, mouse, K. pneum., route not stated, read-out: fifty percent protective dose): 186 mg/kg
- MIC (Proteus mirabilis MGH-1): 1 µg/mL (≈ 3.69 µM)
- MIC (Escherichia coli Vogel [2]): 1 µg/mL (≈ 3.69 µM)
- MIC [3]: 1.95 µg/mL (≈ 7.2 µM)
- ED50 (Escherichia coli Vogel [6]; mouse, E. coli, route not stated, read-out: fifty percent protective dose): 56 mg/kg

Compound: CNn1cc(C(=O)O)c(=O)c2cc(F)c(N3CCC(O)CC3)cc21 [Example 17, 6-Fluoro-1,4-dihydro-7-(4-hydroxy-1-piperidinyl)-1-methylamino-4-oxo-3-quinolinecarboxylic acid]
- ED50 [1, 8]: 200 mg/kg
- MIC [5]: 1.95 µg/mL (≈ 5.82 µM)
- MIC (Escherichia coli Vogel [2]): 1.95 µg/mL (≈ 5.82 µM)
- MIC (Proteus vulgaris 9920): 0.125 µg/mL (≈ 0.373 µM)
- MIC [7]: 31.3 µg/mL (≈ 93.3 µM)
- ED50 (Escherichia coli Vogel [6]; [9]): 12.5 mg/kg

Compound: CCOC(=O)c1cn(NC)c2cc(N3CCN(C)CC3)c(F)cc2c1=O [Example 9, Ethyl 6-fluoro-1,4-dihydro-1-methylamino-7-(4-methyl-1-piperazinyl)-4-oxo-3-quinolinecarboxylate]
- ED50 [1, 8]: > 200 mg/kg
- MIC (Proteus mirabilis MGH-1): 12.5 µg/mL (≈ 34.5 µM)
- MIC (Escherichia coli Vogel [2]): 62.5 µg/mL (≈ 172 µM)
- MIC (Proteus vulgaris 9920): 31.3 µg/mL (≈ 86.4 µM)
- MIC [3]: 62.5 µg/mL (≈ 172 µM)
- ED50 (Escherichia coli Vogel [6]; [9]): 4.4 mg/kg

Compound: CCNn1cc(C(=O)O)c(=O)c2cc(F)c(N3CCN(C)CC3)cc21 [Example 5, 1-Ethylamino-6-fluoro-1,4-dihydro-7-(4-methyl-1-piperazinyl)-4-oxo-3-quinolinecarboxylic acid]
- ED50 [1, 8]: 90 mg/kg
- MIC (Escherichia coli Vogel [2]): 0.5 µg/mL (≈ 1.44 µM)
- MIC (Proteus vulgaris 9920): 0.25 µg/mL (≈ 0.718 µM)
- MIC [3]: 0.5 µg/mL (≈ 1.44 µM)
- MIC [7]: 31.3 µg/mL (≈ 89.8 µM)
- ED50 (Escherichia coli Vogel [6]; [9]): 4.1 mg/kg

Compound: CN1CCN(c2cc3c(cc2F)c(=O)c(C(=O)O)cn3N(C)C=O)CC1 [Example 23, 6-Fluoro-1-(N-formylmethylamino)-1,4-dihydro-7-(4-methyl-1-piperazinyl)-4-oxo-3-quinolinecarboxylic acid]
- ED50 [1, 8]: > 200 mg/kg
- MIC [5]: 15.6 µg/mL (≈ 43.1 µM)
- MIC (Escherichia coli Vogel [2]): 1.95 µg/mL (≈ 5.38 µM)
- MIC (Proteus vulgaris 9920): 1 µg/mL (≈ 2.76 µM)
- MIC [3]: 1.95 µg/mL (≈ 5.38 µM)
- ED50 (Escherichia coli Vogel [6]; [9]): 10.4 mg/kg

Compound: CNn1cc(C(=O)O)c(=O)c2cc(F)c(N3CC[N+](C)([O-])CC3)cc21 [4'-oxide]
- MIC (Proteus mirabilis MGH-1): 32 µg/mL (≈ 91.3 µM)
- MIC (Escherichia coli Vogel [2]): 16 µg/mL (≈ 45.7 µM)
- MIC [3]: 32 µg/mL (≈ 91.3 µM)

Compound: CCCNn1cc(C(=O)O)c(=O)c2cc(F)c(Cl)cc21 [7-Chloro-6-fluoro-1,4-dihydro-4-oxo-1-propylamino-3-quinolinecarboxylic acid]
- MIC [5]: 15.6 µg/mL (≈ 52.2 µM)
- MIC (Escherichia coli Vogel [2]): 15.6 µg/mL (≈ 52.2 µM)
- MIC (Proteus vulgaris 9920): 3.9 µg/mL (≈ 13.1 µM)
- MIC [3]: 31.3 µg/mL (≈ 105 µM)
- MIC [7]: 15.6 µg/mL (≈ 52.2 µM)

Compound: CCN1CCN(c2cc3c(cc2F)c(=O)c(C(=O)O)cn3NC)CC1 [Example 8, 7-(4-Ethyl-1-piperazinyl)-6-fluoro-1,4-dihydro-1-methylamino-4-oxo-3-quinolinecarboxylic acid]
- ED50 [1, 8]: 15.1 mg/kg
- MIC [5]: 1 µg/mL (≈ 2.87 µM)
- MIC (Proteus mirabilis MGH-1): 1 µg/mL (≈ 2.87 µM)
- MIC (Escherichia coli Vogel [2]): 0.5 µg/mL (≈ 1.44 µM)
- MIC (Proteus vulgaris 9920): 0.25 µg/mL (≈ 0.718 µM)
- MIC [3]: 0.5 µg/mL (≈ 1.44 µM)
- MIC [4]: 2 µg/mL (≈ 5.74 µM)
- ED50 (Escherichia coli Vogel [6]; [9]): 1.4 mg/kg

Compound: CNn1cc(C(=O)O)c(=O)c2cc(F)c(N3CCOCC3)cc21 [Example 13, 6-Fluoro-1,4-dihydro-1-methylamino-7-(4-morpholinyl)-4-oxo-3-quinolinecarboxylic acid]
- ED50 [1, 8]: 200 mg/kg
- MIC [5]: 1 µg/mL (≈ 3.11 µM)
- MIC (Escherichia coli Vogel [2]): 0.5 µg/mL (≈ 1.56 µM)
- MIC (Proteus vulgaris 9920): 0.125 µg/mL (≈ 0.389 µM)
- MIC [3]: 1.95 µg/mL (≈ 6.07 µM)
- MIC [7]: 15.6 µg/mL (≈ 48.6 µM)
- MIC [4]: 15.6 µg/mL (≈ 48.6 µM)
- ED50 (Escherichia coli Vogel [6]; [9]): 16.3 mg/kg

Compound: C=CCNn1cc(C(=O)O)c(=O)c2cc(F)c(N3CCN(C)CC3)cc21 [Example 12, 6-Fluoro-1,4-dihydro-7-(4-methyl-1-piperazinyl)-4-oxo-1-(2-propenylamino)-3-quinolinecarboxylic acid]
- ED50 [1, 8]: 141 mg/kg
- MIC (Escherichia coli Vogel [2]): 1 µg/mL (≈ 2.77 µM)
- MIC (Proteus vulgaris 9920): 1 µg/mL (≈ 2.77 µM)
- MIC [3]: 1.95 µg/mL (≈ 5.41 µM)
- MIC [7]: 62.5 µg/mL (≈ 173 µM)
- MIC [4]: 15.6 µg/mL (≈ 43.3 µM)
- ED50 (Escherichia coli Vogel [6]; [9]): 18.9 mg/kg

Compound: CNn1cc(C(=O)O)c(=O)c2cc(F)c(N3CCCNCC3)cc21 [Example 19, 6-Fluoro-7-(hexahydro-1H-1,4-diazapin-1-yl)-1,4-dihydro-1-methylamino-4-oxo-3-quinolinecarboxylic acid]
- ED50 [1, 8]: > 50 mg/kg
- MIC (Proteus mirabilis MGH-1): 1.95 µg/mL (≈ 5.83 µM)
- MIC (Proteus vulgaris 9920): 1 µg/mL (≈ 2.99 µM)
- MIC [3]: 15.6 µg/mL (≈ 46.7 µM)
- MIC [7]: 31.3 µg/mL (≈ 93.6 µM)
- ED50 (Escherichia coli Vogel [6]; [9]): 2.5 mg/kg

Compound: CNn1cc(C(=O)O)c(=O)c2cc(F)c(N3CCCC3)cc21 [Example 16, 6-Fluoro-1,4-dihydro-1-methylamino-4-oxo-7-(1-pyrrolidinyl)-3-quinolinecarboxylic acid]
- ED50 [1, 8]: > 200 mg/kg
- MIC [5]: 0.5 µg/mL (≈ 1.64 µM)
- MIC (Escherichia coli Vogel [2]): 1 µg/mL (≈ 3.28 µM)
- MIC (Proteus vulgaris 9920): 0.5 µg/mL (≈ 1.64 µM)
- ED50 (Escherichia coli Vogel [6]; [9]): > 200 mg/kg

Compound: Nn1cc(C(=O)O)c(=O)c2cc(F)c(N3CCNCC3)cc21 [Example 2, 1-Amino-6-fluoro-1,4-dihydro-4-oxo-7-(1-piperazinyl)-3-quinolinecarboxylic acid]
- ED50 ([1]; Klebsiella pneumoniae, 39645, sc, 336 h, read-out: Protective Dose (PD50)): > 200 mg/kg
- MIC [5]: 31.3 µg/mL (≈ 102 µM)
- MIC [4]: 62.5 µg/mL (≈ 204 µM)
- ED50 (Escherichia coli Vogel [6]; sc, read-out: Protective Dose (PD50)): > 200 mg/kg

Compound: CNn1cc(C(=O)O)c(=O)c2cc(F)c(N3CCCC(O)C3)cc21 (stereo not drawn) [Example 18, 6-Fluoro-1,4-dihydro-7-(3-hydroxy-1-piperidinyl)-1-methylamino-4-oxo-3-quinolinecarboxylic acid]
- ED50 [1, 8]: > 200 mg/kg
- MIC [5]: 1.95 µg/mL (≈ 5.82 µM)
- MIC (Proteus vulgaris 9920): 0.25 µg/mL (≈ 0.746 µM)
- MIC [7]: 15.6 µg/mL (≈ 46.5 µM)
- MIC [4]: 31.3 µg/mL (≈ 93.3 µM)
- ED50 (Escherichia coli Vogel [6]; [9]): 38 mg/kg
